Laboratory results: PMC2821522 (Journal of Clinical Immunology, 2009)
Like-named read-outs stand apart in the source and are kept apart here.

Columns and labels:
Assay type in all cases: cell-based, human
[1] = test system: expanded sarcoidosis CD4+ T cell lines; antigen presented by Sweig cells (HLA DRB1*1101 and DRB3*0202)
CD4+ T cells = experiment: Flow cytometry / intracellular cytokine staining, CD4+ T cells; conditions: sarcoidosis subjects, in words, Fig. 1
[2] = test system: PBMC (immune recognition, gamma interferon-secreting T cells)

WTNTPTKWDNSFLEI [katG peptide 13]
immune response (CD4+ IFN-γ) [1]: minimal response
immune response (CD4+ IFN-γ) ([1]; katG-expanded line of Sarcoidosis 6, with Sweig cells, Fig. 4, listed as katG peptides): strong CD4+ responses
CD4+ T cell response (CD4+ T cells; listed as katG): CD4+ T cell recognition of katG was also detected
CD4+ T cell response (CD4+ T cells; listed as katG peptide): strong CD4+ T cells response
subjects recognizing the peptide [2]: Seven of the eight
subjects recognizing the peptide ([2]; PPD− control subjects): none
